Test results reported in patent US5773005A, “Purified flavonoid and diterpene 5α-reductase inhibitors from thuja orientalis for androgen-related diseases” (priority 1995, dated 1998).

Key:
acne patients = experiment: Treatment of acne patients with diterpene lotion, scored (Example 9); assay type: in vivo, human; conditions: lotion with 1% diterpene, twice a day, group score of 6 patients (3 cured completely, 2 half cured, 1 cured 30%, 0 not cured), highest 18; for Score, 1 mo.: 1 month; for Score, 2 mo.: 2 months
Method: Patients in their twenties who were suffering from acne were divided into five groups each consisting of 3 males and 3 females and treated with a lotion of the following formula prepared in accordance with the invention. |Ethanol 50% |1,3-Butylene glycol | 20% |HCO-60 3% |Diterpene 1% |Purified water 26% The lotion was applied to the diseased part of a patient's face after washing with takallophene soap and the treatment was conducted daily on a twice-a-day basis for a period of 2 months. The acne in each patient was diagnosed as being moderate and a mixture of comedones (primarily whiteheads), papules and pustules. The results were evaluated by the following criteria: 3, cured completely; 2, half cured; 1, cured 30%; 0, not cured. The highest score was 18 and the lowest score was 0.

[1] = system: androgen-dependent human prostatic cancer strain HONDA; experiment: Growth control of androgen-dependent human prostatic cancer strain HONDA in nude mice (Example 15); assay type: in vivo, human (transplanted in BALB/CA-nu/nu mice); conditions: once a day, 28 days; for control of tumor growth (HONDA): peroral in 0.5% CMC
Method: Seven-week old BALB/CA-nu/nu mice were transplanted with androgen-dependenthuman prostatic cancer strain HONDA beneath the dorsal skin and 6-week old BALB/CA-nu/nu mice were transplanted with androgen-dependent rat prostatic cancer strain […] beneath the dorsal skin. When the respective tumors grew to a specified size, the animals were divided into test and control groups. The test groups were administered with suspensions of trans-communic acid and flutamide in 0.5% CMC. The control groups were administered with 0.5% CMC alone. The drugs and the vehicle were administered perorally via an oral probe. The administration was repeated daily for 28 consecutive days on a once-a-day basis. The tumor volume (mm^3) was calculated by the formula of major axis (mm) × the square of minor axis (mm^2)/2.

[2] = system: male pattern baldness in stage V; experiment: Therapeutic effect on male pattern baldness in stage V, scored (Example 10); assay type: in vivo, human; design: key: 10: alopecic area decreased to 1/5 or less and hair density increased by 2/3 or more; 7: alopecic area decreased to 1/3 or less and hair density increased by 1/3 or more; 4: alopecic area decreased to 1/2 or less and hair density increased by 1/5 or more; alopecic area decreased by 20% and hair density increased by 10% or more; 1: alopecic area hardly changed but hair density increased definitely; 0: no change at all; conditions: formula with 1% diterpene, twice a day; for Score, 0 mo.: 0 months; for Score, 1 mo.: 1 month; for Score, 2 mo.: 2 months; for Score, 4 mo.: 4 months; for Score, 6 mo.: 6 months
Method: Diterpenes of the invention were evaluated for their therapeutic effects on male pattern baldness in stage V. The curatives were prepared in accordance with the formula set forth in Table 11. | Ethanol 50% | Propylene glycol | 10% | HCO-60 3% | Diterpene 1% | Purified water | 36% The curatives were applied to the bald area of male volunteers (aged 27-45) in five groups each consisting of 5 cases. The application was done daily on a twice-a-day basis and continued for 6 months. The therapeutic efficacy was evaluated by the following criteria based on the decrease in the area of the parietal alopecic lesion and the density of regrowing hairs: 10 (alopecic area decreased to 1/5 or less and hair density increased by 2/3 or more); 7 (alopecic area decreased to 1/3 or less and hair density increased by 1/3 or more); 4 (alopecic area decreased to 1/2 or less and hair density increased by 1/5 or more); 2 (alopecic area decreased by 20% and hair density increased by 10% or more); 1 (alopecic area hardly changed but hair density increased definitely); 0 (no change at all).

[3] = system: women suffering from idiopathic hirtuism; experiment: Women suffering from idiopathic hirsutism, depilated right forearm (Example 14); assay type: in vivo, human; conditions: 0.1% in 50% ethanol, twice a day
Method: Five women (aged 20-35) suffering from idiopathic hirtuism were treated with 0.1% trans-communic acid in 50% ethanol that was applied daily to a wax depilated area of the right forearm on a twice-a-day basis. Depilation was repeated every other month until the end of the experiment.
Measurements were conducted on the hairs attached to the cloth used for wax depilation.

[4] = system: androgen-dependent rat prostatic cancer strain R3327-G; experiment: Growth control of androgen-dependent rat prostatic cancer strain R3327-G in nude mice (Example 15); assay type: in vivo, rat (transplanted in BALB/CA-nu/nu mice); conditions: castrated mice given 25 mg testosterone enanthat per head; peroral, once a day, 28 days
Method: Seven-week old BALB/CA-nu/nu mice were transplanted with androgen-dependenthuman prostatic cancer strain HONDA beneath the dorsal skin and 6-week old BALB/CA-nu/nu mice were transplanted with androgen-dependent rat prostatic cancer strain R3327-G beneath the dorsal skin. When the respective tumors grew to a specified size, the animals were divided into test and control groups. The test groups were administered with suspensions of trans-communic acid and flutamide in 0.5% CMC. The control groups were administered with 0.5% CMC alone. The drugs and the vehicle were administered perorally via an oral probe. The administration was repeated daily for 28 consecutive days on a once-a-day basis. The tumor volume (mm^3) was calculated by the formula of major axis (mm) × the square of minor axis (mm^2)/2.
The growth of cancer strain R3327-G was not controlled in castrated mice when they were administered 25 mg of testosterone enanthat per head concurrently with the cancer transplantation.

hirsute male volunteers = experiment: Hair regrowth on wax-depilated legs of hirsute male volunteers (Example 13); assay type: in vivo, human; conditions: 0.1% in 50% ethanol, twice a day, 3 months, control section indistinguishable from surrounding area
Method: An experiment was conducted on 5 hirsute male volunteers aged 25-48. The center of each straight leg was depilated with wax to create a lesion about 2 cm wide and 3 cm long. […] The application was done daily on a twice-a-day basis for 3 consecutive months.

male hirsute volunteers = experiment: Suppression of hair regrowth in male hirsute volunteers, wax-depilated inferior limbs (Example 5); assay type: in vivo, human; conditions: 1% in 50% alcohol
[5] = system: male pattern baldness in stage V; experiment: Efficacy against male pattern baldness in stage V, male volunteers (Example 4); assay type: in vivo, human; conditions: 1% in 50% alcohol, twice a day, 4 months
Source text: The 5α-reductase inhibitors extracted from Thuja orientalis were examined for their efficacy against male pattern baldness in stage V. The test samples were components A, B and C, as well as the terpenoid isolated from component A and the (iso)scutellarein isolated from component B, which were each dissolved at a concentration of 1% in 50% alcohol. These samples were daily applied on a twice-a-day basis for a period of 4 months to the bald heads of 27-45 year old male volunteers in five groups each consisting of 5 cases.

Compound	Score, 1 mo. (acne patients)	Score, 2 mo. (acne patients)	control of tumor growth (HONDA) [1]	Score, 0 mo. [2]	Score, 1 mo. [2]	Score, 2 mo. [2]	Score, 4 mo. [2]	Score, 6 mo. [2]	further results
CC(C)C(=O)Nc1ccc([N+](=O)[O-])c(C(F)(F)F)c1 [Flutamide, reference compound]	4	8	effective in tumor control	0	1	2	2	4	efficacy of flutamide relative to trans-communic acid (HONDA) ([1]; peroral): considerably weaker than that of trans-communic acid
C=C/C(C)=C/CC1C(=C)CCC2C(C)(C(=O)O)CCCC12C (stereo not drawn) [Sample I, (E)8(17),12,14-labdatrien-19-oic acid]	8	18	could control the growth of this cancer significantly in a dose-dependent manner	0	1	4	7	10	Hair length (peaked at), sixth measurement, case A ([3]; case A, before treatment: peaked at ca. 10 mm): ca. 10 mm; Hair density, sixth measurement, case A ([3]; case A, before treatment: thick): sparse; Hair length, sixth measurement, case B ([3]; case B, before treatment: peaked at ca. 6 mm): ca. 1 mm; Hair density, sixth measurement, case B ([3]; case B, before treatment: thick): a few; Hair length, sixth measurement, case D ([3]; case D, before treatment: peaked at ca. 8 mm): ca. 2 mm; Hair density, sixth measurement, case D ([3]; case D, before treatment: thick): a few; control of tumor growth (R3327-G) [4]: could effectively control the growth of cancer in a dose-dependent manner; efficacy relative to flutamide (R3327-G) [4]: considerably stronger than that of flutamide; tumor size at 20 mg/kg vs flutamide 200 mg/kg (HONDA) ([1]; trans-communic acid 20 mg/kg, peroral): almost comparable to that of the group administered with 200 mg/kg of flutamide; Regrowth of hair, test section, case A (hirsute male volunteers; case A): No regrowth of hair; Regrowth of hair, test section, case B (hirsute male volunteers; case B): No regrowth of hair; Regrowth of hair, test section, case C (hirsute male volunteers; case C): Regrowth of a few hair; Regrowth of hair, test section, case D (hirsute male volunteers; case D): No regrowth of hair; Regrowth of hair, test section, case E (hirsute male volunteers; case E): No regrowth of hair
C=C/C(C)=C/CC1C(=C)CCC2C(C)(C)CCCC12C (stereo not drawn) [Sample II, (E)8(17),12,14-labdatriene]	10	18	–	0	1	4	7	10	–
C=C/C(C)=C/CC1C(=C)CCC2C(C)(CO)CCCC12C (stereo not drawn) [Sample III, (E)8(17),12,14-labdatrien-19-ol]	9	18	–	0	0	4	7	10	–
(iso)scutellarein	–	–	–	–	–	–	–	–	regrowth of hair as compared to the control section (male hirsute volunteers; topical, control 50% alcohol alone): significantly suppressed; regrowth of hair in the test sections when the experiment ended (male hirsute volunteers; 3 months): barely recognizable; regrowth of hair [5]: pronounced regrowth of hair
